Results taken from ChEMBL document CHEMBL3525952, “A Baeyer-Villiger oxidation specifically catalyzed by human flavin-containing monooxygenase 5” (Drug Metab Dispos, 2011).

Legend:
[1] = molecular target: T1, Flavin-containing monooxygenase 5 (Homo sapiens, UniProt P49326); assay: Drug metabolism assessed as human recombinant FMO5-mediated ER-879123 formation in absence of human liver cytosolic fractions at 50 uM after 60 mins by LC-MS/MS method; type: ADME, tissue-based; conditions: recombinant enzyme, 1 h
T1 sequence (P49326 whole entry): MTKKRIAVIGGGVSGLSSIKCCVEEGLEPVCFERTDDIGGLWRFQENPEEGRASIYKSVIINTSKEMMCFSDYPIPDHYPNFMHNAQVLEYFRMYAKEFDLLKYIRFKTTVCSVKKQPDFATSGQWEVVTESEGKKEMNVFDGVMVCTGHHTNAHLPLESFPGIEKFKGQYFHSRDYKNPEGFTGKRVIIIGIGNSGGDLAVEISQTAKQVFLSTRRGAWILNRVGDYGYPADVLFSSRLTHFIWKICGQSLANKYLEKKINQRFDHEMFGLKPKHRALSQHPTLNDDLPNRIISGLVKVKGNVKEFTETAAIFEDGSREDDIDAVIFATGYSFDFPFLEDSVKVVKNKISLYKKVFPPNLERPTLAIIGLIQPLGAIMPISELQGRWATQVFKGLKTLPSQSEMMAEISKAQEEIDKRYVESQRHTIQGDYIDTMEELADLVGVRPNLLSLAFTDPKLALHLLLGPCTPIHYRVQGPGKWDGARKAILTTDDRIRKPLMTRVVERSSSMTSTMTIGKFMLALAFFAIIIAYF

[2] = Drug metabolism in dog liver S9 fraction assessed as ER-879123 formation at 50 uM after 60 mins in presence of NAD+ and FMO1 and FMO3 substrate/inhibitor methimazole by LC-MS/MS method; type: ADME, subcellular, Canis lupus familiaris; conditions: s9, 1 h
[3] = Drug metabolism in human liver S9 fraction assessed as ER-879123 formation at 50 uM after 60 mins in presence of NAD+ and FMO1 and FMO3 substrate/inhibitor methimazole by LC-MS/MS method; type: ADME, subcellular; conditions: s9, 1 h
[4] = Drug metabolism in human hepatocytes assessed as ER-879123 formation at 50 uM after 120 mins in presence of NADPH by LC-MS/MS method; type: ADME, cell-based, Hepatocyte; conditions: 2 h
[5] = molecular target: T1, Flavin-containing monooxygenase 5; assay: Drug metabolism assessed as human recombinant FMO5-mediated ER-879123 formation in presence of rat liver cytosolic fractions at 50 uM after 60 mins by LC-MS/MS method; type: ADME, tissue-based; conditions: recombinant enzyme, 1 h
[6] = Drug metabolism in rat hepatocytes assessed as ER-879123 formation at 50 uM after 120 mins in presence of NADPH by LC-MS/MS method; type: ADME, cell-based, Hepatocyte; conditions: 2 h
[7] = Drug metabolism in dog hepatocytes assessed as ER-879123 formation at 50 uM after 120 mins in presence of NADPH by LC-MS/MS method; type: ADME, cell-based, Canis lupus familiaris, Hepatocyte; conditions: 2 h
[8] = Drug metabolism in human liver S9 fraction assessed as ER-879123 formation at 50 uM after 60 mins in presence of NAD+ and alcohol dehydrogenase inhibitor 4-methylpyrazole by LC-MS/MS method; type: ADME, subcellular; conditions: s9, 1 h
[9] = Drug metabolism in 50 degC treated human liver S9 fraction assessed as ER-879123 formation at 50 uM after 60 mins in absence of NAD+ by LC-MS/MS method; type: ADME, tissue-based; conditions: s9, 1 h
[10] = Drug metabolism in human liver S9 fraction assessed as ER-879123 formation at 50 uM after 60 mins in presence of NADP+ by LC-MS/MS method; type: ADME, subcellular; conditions: s9, 1 h
[11] = molecular target: T1, Flavin-containing monooxygenase 5; assay: Drug metabolism assessed as human recombinant FMO5-mediated ER-879123 formation in presence of dog liver cytosolic fractions at 50 uM after 60 mins by LC-MS/MS method; type: ADME, tissue-based; conditions: recombinant enzyme, 1 h
[12] = Drug metabolism in dog liver S9 fraction assessed as ER-879123 formation at 50 uM after 60 mins in presence of NAD+ and alcohol dehydrogenase inhibitor 4-methylpyrazole by LC-MS/MS method; type: ADME, subcellular, Canis lupus familiaris; conditions: s9, 1 h
[13] = molecular target: T2, Flavin-containing monooxygenase 3 (Homo sapiens, UniProt P31513); assay: Drug metabolism assessed as human recombinant FMO3-mediated ER-879123 formation in presence of dog liver cytosolic fractions and NAD+ at 50 uM after 60 mins by LC-MS/MS method; type: ADME, tissue-based; conditions: recombinant enzyme, 1 h
T2 sequence (P31513 whole entry): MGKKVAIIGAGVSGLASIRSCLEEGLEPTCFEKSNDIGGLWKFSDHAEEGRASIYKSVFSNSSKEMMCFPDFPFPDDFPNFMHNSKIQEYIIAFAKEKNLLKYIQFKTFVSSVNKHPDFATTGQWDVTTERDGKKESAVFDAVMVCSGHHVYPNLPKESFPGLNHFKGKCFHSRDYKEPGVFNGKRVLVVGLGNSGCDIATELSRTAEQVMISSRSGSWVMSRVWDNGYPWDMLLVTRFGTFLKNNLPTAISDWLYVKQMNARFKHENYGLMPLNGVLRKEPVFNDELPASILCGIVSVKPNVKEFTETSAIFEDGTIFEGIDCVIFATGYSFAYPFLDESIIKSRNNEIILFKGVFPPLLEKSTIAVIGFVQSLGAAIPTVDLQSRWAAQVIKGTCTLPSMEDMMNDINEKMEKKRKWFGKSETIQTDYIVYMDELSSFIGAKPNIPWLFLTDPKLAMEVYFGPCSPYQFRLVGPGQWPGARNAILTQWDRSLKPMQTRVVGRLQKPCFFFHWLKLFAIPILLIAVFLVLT

[14] = molecular target: T3, Flavin-containing monooxygenase 1 (Homo sapiens, UniProt Q01740); assay: Drug metabolism assessed as human recombinant FMO1-mediated ER-879123 formation in presence of dog liver cytosolic fractions and NAD+ at 50 uM after 60 mins by LC-MS/MS method; type: ADME, tissue-based; conditions: recombinant enzyme, 1 h
T3 sequence (Q01740 whole entry): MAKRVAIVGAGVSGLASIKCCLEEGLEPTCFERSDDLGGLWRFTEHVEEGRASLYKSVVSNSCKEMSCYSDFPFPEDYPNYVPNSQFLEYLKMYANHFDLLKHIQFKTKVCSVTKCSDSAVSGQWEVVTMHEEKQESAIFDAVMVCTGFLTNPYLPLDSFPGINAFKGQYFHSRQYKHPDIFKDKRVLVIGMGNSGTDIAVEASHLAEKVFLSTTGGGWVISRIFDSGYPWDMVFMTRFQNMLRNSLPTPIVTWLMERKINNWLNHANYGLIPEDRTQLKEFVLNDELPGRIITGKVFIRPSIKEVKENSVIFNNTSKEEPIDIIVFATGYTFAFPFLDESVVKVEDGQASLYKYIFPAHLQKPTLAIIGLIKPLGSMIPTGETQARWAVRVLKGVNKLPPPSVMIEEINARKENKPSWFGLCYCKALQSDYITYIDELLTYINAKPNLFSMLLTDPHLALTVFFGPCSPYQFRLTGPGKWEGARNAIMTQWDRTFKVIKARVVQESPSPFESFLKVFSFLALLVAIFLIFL

[15] = Drug metabolism in dog liver S9 fraction assessed as ER-879123 formation at 50 uM after 60 mins in presence of NAD+ and carboxylesterase inhibitor BNPP by LC-MS/MS method; type: ADME, subcellular, Canis lupus familiaris; conditions: 1 h
[16] = Drug metabolism in dog liver S9 fraction assessed as ER-879123 formation at 50 uM after 60 mins in presence of NADP+ by LC-MS/MS method; type: ADME, subcellular, Canis lupus familiaris; conditions: s9, 1 h
[17] = Drug metabolism in 50 degC treated dog liver S9 fraction assessed as ER-879123 formation at 50 uM after 60 mins in absence of NAD+ by LC-MS/MS method; type: ADME, tissue-based, Canis lupus familiaris; conditions: s9, 1 h
[18] = Drug metabolism in dog liver S9 fraction assessed as ER-879123 formation at 50 uM after 60 mins in presence of NAD+ by LC-MS/MS method; type: ADME, subcellular, Canis lupus familiaris; conditions: s9, 1 h
[19] = Drug metabolism in human liver S9 fraction assessed as ER-879123 formation at 50 uM after 60 mins in presence of NAD+ by LC-MS/MS method; type: ADME, subcellular; conditions: s9, 1 h
[20] = Drug metabolism in human liver S9 fraction assessed as ER-879123 formation at 50 uM after 60 mins in presence of NAD+ and carboxylesterase inhibitor BNPP by LC-MS/MS method; type: ADME, subcellular; conditions: 1 h
Liver microsome [21] = assay: Drug metabolism in rat liver microsomes assessed as ER-879123 formation at 50 uM after 60 mins in presence of NADPH by LC-MS/MS method; type: ADME; conditions: 1 h
[22] = molecular target: T1, Flavin-containing monooxygenase 5; assay: Drug metabolism assessed as human recombinant FMO5-mediated ER-879123 formation in absence of dog liver cytosolic fractions at 50 uM after 60 mins by LC-MS/MS method; type: ADME, tissue-based; conditions: recombinant enzyme, 1 h
Liver microsome [23] = assay: Drug metabolism in dog liver microsomes assessed as ER-879123 formation at 50 uM after 60 mins in presence of NADPH by LC-MS/MS method; type: ADME, Canis lupus familiaris; conditions: 1 h
[24] = molecular target: T1, Flavin-containing monooxygenase 5; assay: Drug metabolism assessed as human recombinant FMO5-mediated ER-879123 formation in presence of human liver cytosolic fractions at 50 uM after 60 mins by LC-MS/MS method; type: ADME, tissue-based; conditions: recombinant enzyme, 1 h
Liver microsome [25] = assay: Drug metabolism in human liver microsomes assessed as ER-879123 formation at 50 uM after 60 mins in presence of NADPH by LC-MS/MS method; type: ADME; conditions: 1 h
[26] = molecular target: T1, Flavin-containing monooxygenase 5; assay: Drug metabolism assessed as human recombinant FMO5-mediated ER-879123 formation in absence of rat liver cytosolic fractions at 50 uM after 60 mins by LC-MS/MS method; type: ADME, tissue-based; conditions: recombinant enzyme, 1 h

- Drug metabolism [1]: metabolite_not_detected
- Drug metabolism [2]: metabolite_detected
- Drug metabolism [3]: metabolite_detected
- Drug metabolism [4]: metabolite_detected
- Drug metabolism [5]: metabolite_detected
- Drug metabolism [6]: metabolite_detected
- Drug metabolism [7]: metabolite_detected
- Drug metabolism [8]: metabolite_not_detected
- Drug metabolism [9]: metabolite_not_detected
- Drug metabolism [10]: metabolite_detected
- Drug metabolism [11]: metabolite_detected
- Drug metabolism [12]: metabolite_not_detected
- Drug metabolism [13]: metabolite_not_detected
- Drug metabolism [14]: metabolite_not_detected
- Drug metabolism [15]: metabolite_not_detected
- Drug metabolism [16]: metabolite_detected
- Drug metabolism [17]: metabolite_not_detected
- Drug metabolism [18]: metabolite_detected
- Drug metabolism [19]: metabolite_detected
- Drug metabolism [20]: metabolite_not_detected
- Drug metabolism (Liver microsome [21]): metabolite_not_detected
- Drug metabolism [22]: metabolite_not_detected
- Drug metabolism (Liver microsome [23]): metabolite_not_detected
- Drug metabolism [24]: metabolite_detected
- Drug metabolism (Liver microsome [25]): metabolite_not_detected
- Drug metabolism [26]: metabolite_not_detected
Structure (SMILES): O=c1[nH]nc2c3c(cccc13)Oc1ccc(CN3CCC(O)CC3)cc1-2 [E-7016]
